The text below walks through data of ChEMBL document CHEMBL3352306, “Synthesis and antitumor activity of feruloyl and caffeoyl derivatives” (Bioorg Med Chem Lett, 2014).

For test [1], the system named is MCF7. Briefly: Antitumor activity against human MCF7 cells assessed as inhibition of cell growth by MTT assay. Type of test: functional, cell-based. (Formazan colour is commonly taken as a measure of viable cells.)
In test [2] the test system is HeLa. Put plainly: Antitumor activity against human HeLa cells assessed as inhibition of cell growth by MTT assay. Type of test: functional, cell-based.
The nature of test [3]: Antitumor activity against human HL60 cells assessed as inhibition of cell growth by MTT assay. Type of test: functional, cell-based. The following applies: HL-60.
Test [4] has as its system CCRF S-180. Briefly: Antitumor activity against mouse S180 cells implanted in mouse assessed as inhibition of tumor growth at 40 mg/kg. Type of test: functional.
A short description of test [5]: Antitumor activity against human SGC7901 cells assessed as inhibition of cell growth by MTT assay. Type of test: functional, cell-based. The following applies: SGC-7901.
A short description of test [6]: Antitumor activity against human […] cells assessed as inhibition of cell growth by MTT assay. It counts as functional, cell-based.
Test [7] deals with BeWo. Briefly: Antitumor activity against human Bewo cells assessed as inhibition of cell growth by MTT assay. Type of test: functional, cell-based.
Test [8] concerns HL-60. Put plainly: Induction of apoptosis in human HL60 cells at 0.5 to 2 ug/mL by flow cytometry. Type of test: functional, cell-based. (A flow cytometer gives signals particle by particle.)
Test [9] has as its system SiHa. Put plainly: Antitumor activity against human SiHa cells assessed as inhibition of cell growth by MTT assay. It counts as functional, cell-based.
For test [10], the system named is HL-60. Briefly: Induction of cell morphological changes in human HL60 cells at 2.5 to 10 ug/mL. Type of test: functional, cell-based.
Test [11] has as its system A549. Briefly: Antitumor activity against human A549 cells assessed as inhibition of cell growth by MTT assay. Type of test: functional, cell-based.
A short description of test [12]: Antitumor activity against human Bel7404 cells assessed as inhibition of cell growth by MTT assay. It counts as functional, cell-based. As to conditions: BEL-7404.
For test [13], the system named is HepG2. Briefly: Antitumor activity against human HepG2 cells assessed as inhibition of cell growth by MTT assay. Type of test: functional, cell-based.

The source made the active and inactive calls. The calls are words filed in the database; no cut-off is given here. A value given as a limit tells only on which side of the number the result lay.

What is called IC50 is the concentration that gives 50% inhibition. Broadly, the inhibition in vivo is the drop in the measured response relative to a control, in per cent. As for `O=C(/C=C/c1cc(O)c(O)c([N+](=O)[O-])c1)OC12CC3CC(CC(C3)C1)C2`, the 50% inhibitory concentration (IC50) stood at 4.09 µM in test [1]; 1.28 µM in test [2]; 4.07 µM in test [3]; 4.6 µM in test [5]; 8.22 µM in [6]; 5.63 µM in test [7]. The IC50 was determined as 6.74 µM in [9], 4.41 µM in [11], 21.4 µM in test [12] and 3.84 µM in test [13]. Besides, in test [4], the inhibition in vivo at 40 mg/kg was 36.7%. Moreover, the result in test [8] and in test [10] was Active.

`O=P1(N(CCCl)CCCl)NCCCO1` (stereo not given) [CYCLOPHOSPHAMIDE ANHYDROUS]: in [4], the inhibition in vivo at 40 mg/kg was 54.8%.

Regarding `CCCCOC(=O)/C=C/c1ccc(O)c(O)c1` [BUTYL CAFFEATE], the IC50 in test [2] is 40.8 µM; in test [3] it was 7.54 µM; in test [5], more than 100 µM; in test [7] it was 5.42 µM; in [9], 41 µM; in test [13], more than 100 µM.
